We go through five compounds from ChEMBL document CHEMBL1201862, “PubChem BioAssay data set” (2004).

Assay [1] concerns the target Luciferin 4-monooxygenase (Photinus pyralis, UniProt P08659). In words: firefly luciferase enzyme inhibitors, dose response, biochemical, luminescence (AID 1891).
Assay [2] is described as follows: Luminescence Cell-Based Dose Confirmation HTS to Identify Inhibitors of Platelet Dense Granule Release. [Related pubchem assays: 1663 (Primary HTS), 1678 (Summary of Project)]. In kind it is functional.
Assay [3] in a line: CAL PDZ domain peptide-binding inhibitors, dose response, biochemical, fluorescence polarization, untagged CAL PDZ, cherry-pick, set 2 (AID 602254). In kind it is functional. In general terms: Fluorescence polarisation rises when a labelled molecule tumbles more slowly, as on binding a larger partner.
A further assay has as its target T1, Caspase-3 (Homo sapiens, UniProt P42574).
T1 sequence (P42574 whole entry): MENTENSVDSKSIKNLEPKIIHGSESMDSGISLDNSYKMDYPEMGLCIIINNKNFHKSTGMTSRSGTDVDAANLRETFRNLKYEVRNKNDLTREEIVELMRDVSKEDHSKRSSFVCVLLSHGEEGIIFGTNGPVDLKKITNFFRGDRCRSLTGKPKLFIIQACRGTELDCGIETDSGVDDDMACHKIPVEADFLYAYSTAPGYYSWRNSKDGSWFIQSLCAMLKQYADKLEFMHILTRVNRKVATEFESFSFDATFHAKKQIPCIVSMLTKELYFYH
In words: caspase-3 inhibitors as off-family protease, SAR follow-up, selectivity assay for SENP protease inhibitor project, biochemical, luminescence, set 2 (AID 588599). In kind it is functional.

Assay [4] concerns the target T2, Sentrin-specific protease 7 (Homo sapiens, UniProt Q9BQF6).
T2 sequence (Q9BQF6 whole entry): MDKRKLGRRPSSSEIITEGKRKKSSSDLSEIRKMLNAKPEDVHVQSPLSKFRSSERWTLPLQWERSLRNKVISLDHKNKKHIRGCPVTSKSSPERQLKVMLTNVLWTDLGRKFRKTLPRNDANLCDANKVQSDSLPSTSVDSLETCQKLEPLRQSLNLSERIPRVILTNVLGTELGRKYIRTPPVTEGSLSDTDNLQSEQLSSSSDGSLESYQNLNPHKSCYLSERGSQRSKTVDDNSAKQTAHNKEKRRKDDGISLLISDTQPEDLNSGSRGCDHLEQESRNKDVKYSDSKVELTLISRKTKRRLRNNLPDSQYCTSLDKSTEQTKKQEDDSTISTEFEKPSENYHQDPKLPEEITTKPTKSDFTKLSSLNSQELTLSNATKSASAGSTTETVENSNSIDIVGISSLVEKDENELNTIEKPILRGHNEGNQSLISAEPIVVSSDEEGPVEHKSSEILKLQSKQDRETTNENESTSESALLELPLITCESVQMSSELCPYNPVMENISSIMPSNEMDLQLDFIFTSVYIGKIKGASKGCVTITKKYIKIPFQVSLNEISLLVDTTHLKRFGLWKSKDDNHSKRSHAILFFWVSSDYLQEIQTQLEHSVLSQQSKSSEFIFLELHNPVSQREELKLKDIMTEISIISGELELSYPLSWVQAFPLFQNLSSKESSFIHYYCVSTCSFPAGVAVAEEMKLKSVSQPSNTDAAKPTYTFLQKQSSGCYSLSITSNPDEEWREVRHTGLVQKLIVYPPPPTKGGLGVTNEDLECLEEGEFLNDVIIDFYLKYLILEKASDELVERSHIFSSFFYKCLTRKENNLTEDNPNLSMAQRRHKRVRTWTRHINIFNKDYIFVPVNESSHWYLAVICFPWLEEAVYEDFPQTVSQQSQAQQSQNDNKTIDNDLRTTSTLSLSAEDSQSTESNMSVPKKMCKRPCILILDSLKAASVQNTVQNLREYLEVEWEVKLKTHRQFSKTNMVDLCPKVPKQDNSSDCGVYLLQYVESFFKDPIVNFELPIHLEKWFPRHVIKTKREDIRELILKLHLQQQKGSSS
In words: SENP7 protease inhibitors, SAR follow-up, biochemical, luminescence, set 2 (AID 588600). In kind it is functional.

The target of assay [5] is T3, Sentrin-specific protease 6 (Homo sapiens, UniProt Q9GZR1).
T3 sequence (Q9GZR1 whole entry): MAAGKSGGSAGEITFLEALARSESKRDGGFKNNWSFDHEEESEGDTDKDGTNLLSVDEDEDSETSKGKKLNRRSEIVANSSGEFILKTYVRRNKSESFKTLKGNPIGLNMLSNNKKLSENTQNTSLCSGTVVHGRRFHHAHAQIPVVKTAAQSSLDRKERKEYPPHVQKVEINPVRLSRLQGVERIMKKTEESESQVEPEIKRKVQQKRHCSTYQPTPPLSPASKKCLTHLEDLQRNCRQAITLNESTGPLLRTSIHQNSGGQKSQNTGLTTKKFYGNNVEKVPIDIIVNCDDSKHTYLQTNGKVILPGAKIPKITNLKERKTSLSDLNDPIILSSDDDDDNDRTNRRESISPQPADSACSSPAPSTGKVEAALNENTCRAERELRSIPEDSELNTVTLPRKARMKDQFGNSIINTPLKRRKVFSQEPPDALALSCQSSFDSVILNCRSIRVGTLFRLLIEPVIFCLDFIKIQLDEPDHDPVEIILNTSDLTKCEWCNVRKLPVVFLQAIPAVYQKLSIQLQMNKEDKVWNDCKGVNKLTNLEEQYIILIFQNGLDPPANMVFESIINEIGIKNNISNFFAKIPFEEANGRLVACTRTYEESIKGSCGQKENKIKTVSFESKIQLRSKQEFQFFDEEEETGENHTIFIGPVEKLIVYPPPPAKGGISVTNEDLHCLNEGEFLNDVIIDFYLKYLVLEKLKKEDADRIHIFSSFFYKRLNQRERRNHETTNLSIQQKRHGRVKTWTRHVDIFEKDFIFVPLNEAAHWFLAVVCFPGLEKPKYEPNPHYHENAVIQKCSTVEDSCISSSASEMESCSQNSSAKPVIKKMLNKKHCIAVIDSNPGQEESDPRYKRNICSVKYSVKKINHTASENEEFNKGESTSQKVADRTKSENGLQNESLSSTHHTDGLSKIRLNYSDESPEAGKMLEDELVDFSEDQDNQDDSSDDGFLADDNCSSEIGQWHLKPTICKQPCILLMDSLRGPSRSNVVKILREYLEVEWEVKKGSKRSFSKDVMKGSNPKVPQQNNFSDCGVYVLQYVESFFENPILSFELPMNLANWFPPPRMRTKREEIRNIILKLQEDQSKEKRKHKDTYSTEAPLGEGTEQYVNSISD
In words: SENP6 protease inhibitors, SAR follow-up, biochemical, luminescence, set 2 (AID 588598). In kind it is functional.

The target in assay [6] is T4, Sentrin-specific protease 8 (Homo sapiens, UniProt Q96LD8).
T4 sequence (Q96LD8 whole entry): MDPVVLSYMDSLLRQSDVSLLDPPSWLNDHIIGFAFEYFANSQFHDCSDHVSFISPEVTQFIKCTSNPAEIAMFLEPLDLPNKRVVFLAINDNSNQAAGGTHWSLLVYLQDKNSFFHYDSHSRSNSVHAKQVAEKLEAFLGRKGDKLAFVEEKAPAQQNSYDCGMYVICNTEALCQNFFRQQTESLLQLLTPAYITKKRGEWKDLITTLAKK
In words: SENP8 protease inhibitors, SAR follow-up, biochemical, luminescence, set 2 (AID 588601). In kind it is functional.

Assay [7] concerns the target T5, DNA repair protein RAD52 homolog (Homo sapiens, UniProt P43351).
T5 sequence (P43351 whole entry): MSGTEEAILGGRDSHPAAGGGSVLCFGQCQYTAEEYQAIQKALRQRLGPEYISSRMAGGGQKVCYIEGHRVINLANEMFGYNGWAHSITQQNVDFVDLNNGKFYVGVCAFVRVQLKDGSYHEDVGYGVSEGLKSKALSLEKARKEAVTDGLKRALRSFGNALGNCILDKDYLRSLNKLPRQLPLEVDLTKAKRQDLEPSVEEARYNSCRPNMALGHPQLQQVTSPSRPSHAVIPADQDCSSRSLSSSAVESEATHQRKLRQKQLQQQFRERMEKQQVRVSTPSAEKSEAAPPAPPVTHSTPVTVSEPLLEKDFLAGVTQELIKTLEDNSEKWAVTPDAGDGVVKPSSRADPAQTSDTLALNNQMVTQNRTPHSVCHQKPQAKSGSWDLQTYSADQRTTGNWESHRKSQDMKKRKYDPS
In kind it is functional, biochemical.

The target in the next assay is Prothrombin (Bos taurus, UniProt P00735). In words: thrombin inhibition, dose response, biochemical, fluorescence polarization, uHTS hits (AID 602369). In kind it is functional.
A short description of assay [8]: HeLa cell cytotoxicity, dose response, cytotoxicity control for MgcRacGAP inhibitor project (AID 624300). In kind it is functional.
The target in assay [9] is T6, Rac GTPase-activating protein 1 (Homo sapiens, UniProt Q9H0H5).
T6 sequence (Q9H0H5 whole entry): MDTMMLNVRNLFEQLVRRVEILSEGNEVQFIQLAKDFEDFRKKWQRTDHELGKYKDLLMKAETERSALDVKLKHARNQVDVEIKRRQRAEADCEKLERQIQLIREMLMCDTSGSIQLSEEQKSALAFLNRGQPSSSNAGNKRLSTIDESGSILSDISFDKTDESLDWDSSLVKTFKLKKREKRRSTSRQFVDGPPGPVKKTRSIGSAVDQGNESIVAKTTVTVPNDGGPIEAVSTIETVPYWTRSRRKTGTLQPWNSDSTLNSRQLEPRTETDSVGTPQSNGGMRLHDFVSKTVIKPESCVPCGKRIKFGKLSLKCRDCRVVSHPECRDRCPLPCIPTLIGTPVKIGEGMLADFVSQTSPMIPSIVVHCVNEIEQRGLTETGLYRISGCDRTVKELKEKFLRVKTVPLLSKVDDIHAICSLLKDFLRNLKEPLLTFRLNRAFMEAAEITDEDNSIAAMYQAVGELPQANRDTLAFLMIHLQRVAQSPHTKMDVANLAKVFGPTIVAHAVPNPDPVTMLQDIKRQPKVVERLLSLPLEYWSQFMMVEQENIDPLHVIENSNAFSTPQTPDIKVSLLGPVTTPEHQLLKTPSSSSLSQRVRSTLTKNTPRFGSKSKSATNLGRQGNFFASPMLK
In words: MgcRacGAP GTPase-activating activity inhibitors, confirmation, biochemical, ADP Hunter fluorescence, primary and confirmatory (AID 624330). In kind it is functional.

Assay [10] concerns the target Heat shock protein HSP 90-alpha (Homo sapiens, UniProt P07900). In kind it is functional, organism-based.
Assay [11] addresses T7, Melanocortin receptor 4 (Homo sapiens, UniProt P32245). In kind it is functional, cell-based.
In assay [12] the target is 72 kDa type IV collagenase (Homo sapiens, UniProt P08253). In words: Dose Response validation of uHTS RPN11 inhibitor hits using a MMP-2 Fluorescence assay. In kind it is functional.
Sequence of 72 kDa type IV collagenase (P08253 whole entry): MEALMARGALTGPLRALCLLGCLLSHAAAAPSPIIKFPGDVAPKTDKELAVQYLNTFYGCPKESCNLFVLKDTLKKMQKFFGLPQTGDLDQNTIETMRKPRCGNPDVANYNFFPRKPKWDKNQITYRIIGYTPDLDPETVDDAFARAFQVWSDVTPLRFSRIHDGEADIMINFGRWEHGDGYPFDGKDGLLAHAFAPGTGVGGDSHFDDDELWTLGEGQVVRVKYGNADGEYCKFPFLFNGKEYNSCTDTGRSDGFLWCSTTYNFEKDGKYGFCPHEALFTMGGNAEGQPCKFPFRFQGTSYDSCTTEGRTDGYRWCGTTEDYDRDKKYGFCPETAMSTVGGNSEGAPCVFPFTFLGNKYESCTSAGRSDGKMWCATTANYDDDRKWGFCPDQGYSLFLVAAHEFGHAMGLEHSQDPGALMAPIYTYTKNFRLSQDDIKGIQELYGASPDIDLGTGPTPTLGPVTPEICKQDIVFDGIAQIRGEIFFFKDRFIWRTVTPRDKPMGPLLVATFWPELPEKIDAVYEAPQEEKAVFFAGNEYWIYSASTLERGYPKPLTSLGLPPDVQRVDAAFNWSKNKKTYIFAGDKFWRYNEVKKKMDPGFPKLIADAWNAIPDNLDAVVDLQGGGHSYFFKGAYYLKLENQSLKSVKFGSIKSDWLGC
For assay [13], the target named is T7, Melanocortin receptor 4. In words: MC4R antagonist potency on cAMP, dose response, cell-based, TR-FRET, biased antagonists (AID 602298).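 Also: antagonist potency against agonist-stimulated cAMP production.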 In kind it is functional. A general note: Time-resolved FRET reads energy transfer from a long-lived donor to a nearby acceptor.
In assay [14] the target is 26S proteasome non-ATPase regulatory subunit 14 (Homo sapiens, UniProt O00487). In words: inhibition of proteasome subunit RPN11 – biochemical, fluorescence polarization, uHTS hits, confirmation (AID 602368). In kind it is functional.
Sequence of 26S proteasome non-ATPase regulatory subunit 14 (O00487 whole entry): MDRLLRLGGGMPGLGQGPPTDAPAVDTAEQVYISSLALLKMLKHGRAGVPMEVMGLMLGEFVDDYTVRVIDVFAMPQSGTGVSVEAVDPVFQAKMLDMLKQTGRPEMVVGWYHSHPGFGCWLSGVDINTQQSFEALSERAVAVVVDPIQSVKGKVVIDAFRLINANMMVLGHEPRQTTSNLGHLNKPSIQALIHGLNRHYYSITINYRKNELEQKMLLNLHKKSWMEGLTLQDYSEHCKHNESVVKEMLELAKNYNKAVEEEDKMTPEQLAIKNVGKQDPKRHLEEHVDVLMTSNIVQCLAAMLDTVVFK
Assay [15] can be described thus: nonselective inhibitors of cellular cAMP signaling, dose response, counter-screen for MC4R biased antagonist project, cell-based, TR-FRET cAMP detection (AID 602305).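 Also: U2OS cells stimulated with forskolin near its EC80 as the cAMP inducer; potency is for inhibition of forskolin-stimulated cAMP signaling.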 In kind it is functional.

Calls of active or inactive are those of the source.

T7 sequence (P32245 whole entry): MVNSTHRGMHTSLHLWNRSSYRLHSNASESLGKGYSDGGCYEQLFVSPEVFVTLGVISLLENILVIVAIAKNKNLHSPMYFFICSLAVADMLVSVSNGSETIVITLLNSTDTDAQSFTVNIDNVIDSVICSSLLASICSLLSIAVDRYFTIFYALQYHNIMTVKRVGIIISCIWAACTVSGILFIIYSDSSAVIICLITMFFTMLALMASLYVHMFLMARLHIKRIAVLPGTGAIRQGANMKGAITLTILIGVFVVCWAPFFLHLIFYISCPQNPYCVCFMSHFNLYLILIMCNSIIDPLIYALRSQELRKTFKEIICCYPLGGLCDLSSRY
Sequence of Luciferin 4-monooxygenase (P08659 whole entry): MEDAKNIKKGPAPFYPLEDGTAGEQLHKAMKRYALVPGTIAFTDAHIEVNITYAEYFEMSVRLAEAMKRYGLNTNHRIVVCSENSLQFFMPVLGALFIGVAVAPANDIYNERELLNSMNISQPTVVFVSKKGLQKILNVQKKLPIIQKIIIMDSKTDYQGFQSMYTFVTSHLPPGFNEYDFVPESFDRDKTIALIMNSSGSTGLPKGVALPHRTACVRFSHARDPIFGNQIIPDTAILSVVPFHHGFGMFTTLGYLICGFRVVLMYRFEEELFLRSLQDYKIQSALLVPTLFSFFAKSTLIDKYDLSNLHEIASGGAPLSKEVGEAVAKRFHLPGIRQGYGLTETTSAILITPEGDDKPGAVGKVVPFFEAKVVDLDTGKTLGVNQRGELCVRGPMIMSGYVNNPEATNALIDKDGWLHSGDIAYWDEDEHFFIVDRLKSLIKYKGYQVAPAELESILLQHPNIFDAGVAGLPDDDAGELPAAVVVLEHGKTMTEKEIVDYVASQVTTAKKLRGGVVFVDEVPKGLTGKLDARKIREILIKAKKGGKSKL

The term EC50 denotes the concentration that produces a half-maximal response. In general, AC50 refers to the concentration at which the activity in the assay is half-maximal. Take `COC(=O)c1cc(S(=O)(=O)NCCc2ccc(SC)cc2)c[nH]1`: the concentration giving a half-maximal response (EC50) in assay [1] and in [2] was > 112 µM (not active) each time. Further, the AC50 in assay [3] was 112 µM (active).

The term IC50 denotes the midpoint of a concentration-inhibition curve. Turning to `Cc1[nH]c2ccccc2c1C(=O)C(=O)NCCn1ccc2ccccc21`, the IC50 (at Caspase-3; in assay [4]; in [5]; in [6]) was > 99 µM (inactive) in each case.

Regarding `COc1ccc(/C=C(/C#N)c2nc(-c3ccccc3C)no2)cc1O`, the IC50 (at Caspase-3; in assay [4]; in assay [5]; in assay [6]) was > 99 µM (inactive) in each case.

The term CC50 denotes the concentration giving 50% cytotoxicity. Take `CCCCCCCCCCCCCCCC[N+](C)(C)Cc1ccc(F)cc1`: the figures for the AC50 in assay [7] and in assay [10] were 5.28 µM (active) and 4.51 µM (active), respectively. Moreover, the 50% inhibitory concentration (IC50) on Prothrombin was 37.4 µM (active); in assay [9], 83.4 µM (active); in [12], 91.8 µM (active); at Melanocortin receptor 4 [13] it was 13.7 µM (inactive); in [14], 61.1 µM (active); in [15], 59.8 µM (inactive). Besides, the CC50 in assay [8] was 15.7 µM (active). Moreover, at Melanocortin receptor 4 [11], the EC50 is > 89.2 µM (inactive).

Regarding `CCOC(=O)c1sc(NC(=O)CCN2CCN(CC)CC2)c(C(=O)OCC)c1C`, the IC50 (at Melanocortin receptor 4 [13]; in assay [15]) was > 64.6 µM (inactive) in each case.
